From ChEMBL document CHEMBL1201862, “PubChem BioAssay data set” (2004)
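Grown in 96-well plates, cells were treated for 48 hours with each compound at five concentrations. Insufficient inhibition: endpoint recorded as highest concentration tested. GI50 = concentration required for 50% inhibition of growth.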 Active and inactive are the calls of the source. Cut-off read from the data, not from the text of the source: active = GI50 up to about 1.1 µM and inactive = higher.

What was measured:
Experiment in all cases: NCI anticancer screen, dose series, 48 h
[1] = tested on: HCT-15
[2] = tested on: HCC 2998
[3] = tested on: Malme-3M
[4] = tested on: ACHN
[5] = tested on: LXFL 529
[6] = tested on: CAKI-1
[7] = tested on: HT-29
[8] = tested on: UACC-62
[9] = tested on: UO-31
[10] = tested on: SK-OV-3
[11] = tested on: TK-10
[12] = tested on: CCRF-CEM
[13] = tested on: MOLT-4
[14] = tested on: SF-539
[15] = tested on: COLO 205
[16] = tested on: SK-MEL-2
[17] = tested on: NCI-H226
[18] = tested on: A498
[19] = tested on: MDA-N
[20] = tested on: Hs-578T

| Compound | GI50 [1] [µM] | GI50 [2] | GI50 [3] | GI50 [4] | GI50 [5] | GI50 [6] | GI50 [7] | GI50 [8] | GI50 [9] | GI50 [10] | GI50 [11] | GI50 [12] | GI50 [13] | GI50 [14] | GI50 [15] | GI50 [16] | GI50 [17] | GI50 [18] | GI50 [19] | GI50 [20] |
| --- | --- | --- | --- | --- | --- | --- | --- | --- | --- | --- | --- | --- | --- | --- | --- | --- | --- | --- | --- | --- |
| CCNC(=O)C(O)C1(O)CCC2[C@@H]3CCC4=CC(=O)C=C[C@]4(C)C3[C@@H](O)C[C@@]21C (some centres undefined) | > 100 | > 100 µM (inactive) | > 100 µM (inactive) | > 100 µM (inactive) | > 100 µM (inactive) | > 100 µM (inactive) | > 100 µM (inactive) | > 100 µM (inactive) | > 100 µM (inactive) | > 100 µM (inactive) | > 100 µM (inactive) | 32.8 µM (inactive) | 52.1 µM (inactive) | > 100 µM (inactive) | > 100 µM (inactive) | > 100 µM (inactive) | > 87.5 µM (inactive) |  |  |  |
| O=C(O)C1=CCCc2ccc3ccccc3c21 | > 100 |  | > 100 µM (inactive) | > 100 µM (inactive) | > 100 µM (inactive) |  | > 100 µM (inactive) | > 100 µM (inactive) | > 100 µM (inactive) | > 100 µM (inactive) | > 100 µM (inactive) | > 10 µM (inactive) | > 100 µM (inactive) | > 100 µM (inactive) | > 100 µM (inactive) | > 100 µM (inactive) | > 100 µM (inactive) | > 100 µM (inactive) |  |  |
| CCOc1ccccc1C=C1c2ccccc2C(=O)c2ccccc21 | 0.804 | 3.63 µM (inactive) | 8.15 µM (inactive) | 8.63 µM (inactive) | 6.98 µM (inactive) | 2.11 µM (inactive) |  | 3.34 µM (inactive) | 2.59 µM (inactive) | 3.03 µM (inactive) | 4.56 µM (inactive) | 4.32 µM (inactive) | 4.3 µM (inactive) | 2.16 µM (inactive) | 3.78 µM (inactive) | 2.94 µM (inactive) |  | 6.75 µM (inactive) |  |  |
| CCOc1ccc(/C(C=O)=C(\Cl)c2ccc(OC)c(OC)c2)cc1 | > 100 |  | > 100 µM (inactive) | > 100 µM (inactive) | > 100 µM (inactive) | > 100 µM (inactive) | > 100 µM (inactive) | 68.9 µM (inactive) | > 100 µM (inactive) | > 100 µM (inactive) | > 100 µM (inactive) | > 100 µM (inactive) |  | 83.2 µM (inactive) | > 100 µM (inactive) | > 100 µM (inactive) | > 100 µM (inactive) | > 100 µM (inactive) |  |  |
| O=C(Cl)c1cc([N+](=O)[O-])cc([N+](=O)[O-])c1 | > 100 | > 100 µM (inactive) | > 100 µM (inactive) | > 100 µM (inactive) | > 100 µM (inactive) | > 100 µM (inactive) | > 100 µM (inactive) | > 100 µM (inactive) | > 100 µM (inactive) | > 100 µM (inactive) | > 100 µM (inactive) | > 100 µM (inactive) | > 100 µM (inactive) | > 100 µM (inactive) | > 100 µM (inactive) | > 100 µM (inactive) | > 100 µM (inactive) |  |  |  |
| CCOC(=O)C(C)c1c(C(=O)c2ccc(C)nc2)c2ccccc2n1C (centres undefined) | > 100 | > 100 µM (inactive) | > 100 µM (inactive) | > 100 µM (inactive) | > 100 µM (inactive) | > 100 µM (inactive) | > 100 µM (inactive) | > 100 µM (inactive) |  | > 100 µM (inactive) | > 100 µM (inactive) | > 100 µM (inactive) | > 100 µM (inactive) |  | > 100 µM (inactive) | 82.8 µM (inactive) |  |  |  |  |
| C#C[C@]1(O)CCC2C3CCc4cc(Oc5nc(F)nc(-c6c7cc8ccccc8cc7c7n6CCS7)n5)ccc4C3CCC21C (some centres undefined) |  | 85.5 µM (inactive) | 53.6 µM (inactive) | > 100 µM (inactive) | 39.5 µM (inactive) |  | 26.2 µM (inactive) | 20.8 µM (inactive) | > 100 µM (inactive) | 45.4 µM (inactive) | 71.3 µM (inactive) | 49.3 µM (inactive) | 49.8 µM (inactive) | 30.1 µM (inactive) | 20.6 µM (inactive) | 28.8 µM (inactive) | > 100 µM (inactive) |  |  |  |
| CN(C)CCSc1cccc(-c2cc(-c3cccc(SCCN(C)C)c3)nc(SCCN(C)C)n2)c1 | 2.18 | 2.29 µM (inactive) | 1.87 µM (inactive) | 5.77 µM (inactive) | 2.02 µM (inactive) |  | 1.55 µM (inactive) | 17.5 µM (inactive) | 12.8 µM (inactive) | 30.1 µM (inactive) | 2.88 µM (inactive) | 1.69 µM (inactive) | 1.63 µM (inactive) | 1.77 µM (inactive) |  | 7.96 µM (inactive) |  |  |  |  |
| COc1cccc(NC(=O)CC(=O)N2N=C(N3c4ccccc4Sc4ccccc43)CC2c2ccccc2)c1 (centres undefined) | > 100 | > 100 µM (inactive) | > 100 µM (inactive) | > 100 µM (inactive) | > 100 µM (inactive) | > 100 µM (inactive) | > 100 µM (inactive) | > 100 µM (inactive) | > 100 µM (inactive) | > 100 µM (inactive) | > 100 µM (inactive) |  | > 100 µM (inactive) | > 100 µM (inactive) | > 100 µM (inactive) |  | > 100 µM (inactive) | > 100 µM (inactive) |  |  |
| CN(C)C=[N+]=[N-] | > 100 | > 100 µM (inactive) | > 100 µM (inactive) | > 100 µM (inactive) | > 100 µM (inactive) | 43 µM (inactive) | > 100 µM (inactive) | > 100 µM (inactive) | > 100 µM (inactive) | > 100 µM (inactive) | > 100 µM (inactive) |  | > 100 µM (inactive) | > 100 µM (inactive) | > 100 µM (inactive) | > 100 µM (inactive) | > 100 µM (inactive) | > 100 µM (inactive) |  |  |
| CC(C)C(C/C=C1\CC(CO)(COC(=O)C(C)(C)C)OC1=O)C(C)C (centres undefined) | 13.4 | 7.03 µM (inactive) | 10.7 µM (inactive) | 11 µM (inactive) |  | 8.73 µM (inactive) | 19.3 µM (inactive) | 15.2 µM (inactive) | 5.09 µM (inactive) | 15.1 µM (inactive) | 7.23 µM (inactive) | 10.6 µM (inactive) | 0.581 µM (active) | 7.93 µM (inactive) | 1.64 µM (inactive) | 20.6 µM (inactive) | 5.12 µM (inactive) | 14.1 µM (inactive) | 4.97 µM (inactive) | 2.5 µM (inactive) |
| Cc1cc2c(=O)cc(-c3ccc(Cl)cc3)oc2c(C(=O)O)c1C | > 100 |  | > 100 µM (inactive) | > 100 µM (inactive) | > 100 µM (inactive) | > 100 µM (inactive) | > 100 µM (inactive) | > 100 µM (inactive) | > 100 µM (inactive) | > 100 µM (inactive) | > 100 µM (inactive) | > 100 µM (inactive) | > 100 µM (inactive) | > 100 µM (inactive) | > 100 µM (inactive) | > 100 µM (inactive) | > 100 µM (inactive) |  |  |  |
| O=C(c1ccccc1)[C@H]1Nc2ccc(Cl)cc2[C@H]2CCC[C@@H]12 | 25.1 | 30.5 µM (inactive) | 22 µM (inactive) | 13.3 µM (inactive) | 17.9 µM (inactive) | 59.8 µM (inactive) | 21 µM (inactive) | 25.8 µM (inactive) | 17.8 µM (inactive) |  | 30.6 µM (inactive) |  | 5.7 µM (inactive) | 33.2 µM (inactive) | 25.1 µM (inactive) | 19.7 µM (inactive) | 13.6 µM (inactive) |  |  |  |
| C=CC1(C)CCC2C(=CCC3C(C)(COC4OC(C(=O)O)C(O)C(O)C4O)C(O)CCC23C)C1.C=CC1(C)CCC2C(=CCC3C2(C)CC(O)C(O)C3(C)COC2OC(C(=O)O)C(O)C(O)C2O)C1 (centres undefined) | > 100 | > 100 µM (inactive) | > 100 µM (inactive) | > 100 µM (inactive) |  | > 100 µM (inactive) | > 100 µM (inactive) | > 100 µM (inactive) | > 100 µM (inactive) | > 100 µM (inactive) | 46.1 µM (inactive) | 19.4 µM (inactive) | 13.3 µM (inactive) | > 100 µM (inactive) | > 100 µM (inactive) | > 100 µM (inactive) | > 100 µM (inactive) | > 100 µM (inactive) | > 100 µM (inactive) | > 100 µM (inactive) |
| CS(=O)(=O)O.[Ag] | 18.7 | 14.2 µM (inactive) | 1.92 µM (inactive) | 4.53 µM (inactive) |  | 17.8 µM (inactive) | 19.3 µM (inactive) | 17.9 µM (inactive) | 1.78 µM (inactive) | 18.3 µM (inactive) | 2.42 µM (inactive) | 2.46 µM (inactive) | 2.32 µM (inactive) | 17.3 µM (inactive) | 2.16 µM (inactive) | 15.4 µM (inactive) | 25.1 µM (inactive) | 20.8 µM (inactive) | 7.1 µM (inactive) | 37.7 µM (inactive) |
| Cc1ccc(S(=O)(=O)OCOS(=O)(=O)c2ccc(C)cc2)cc1 | > 100 | > 100 µM (inactive) | > 100 µM (inactive) | > 100 µM (inactive) | > 100 µM (inactive) |  |  | > 10 µM (inactive) | > 100 µM (inactive) | > 100 µM (inactive) | > 100 µM (inactive) | > 100 µM (inactive) | > 100 µM (inactive) | > 100 µM (inactive) | > 100 µM (inactive) | > 100 µM (inactive) |  |  |  |  |
| CCOC(=O)c1cn2c(n1)sc1cc(F)ccc12 | > 100 | > 100 µM (inactive) | > 100 µM (inactive) | > 100 µM (inactive) |  | > 100 µM (inactive) | 82.8 µM (inactive) | > 100 µM (inactive) | > 100 µM (inactive) | > 100 µM (inactive) | > 100 µM (inactive) | > 100 µM (inactive) | > 100 µM (inactive) | 99.5 µM (inactive) | > 100 µM (inactive) | > 100 µM (inactive) | > 100 µM (inactive) | 30.8 µM (inactive) | 19.4 µM (inactive) | 64.3 µM (inactive) |
